Measured values published in patent publication US20170190671A1, “BIS(ARYL)CATECHOL DERIVATIVES AS HERBICIDES” (E I DU PONT DE NEMOURS AND COMPANY, priority 2014, published 2017).

Tests used:
Test in all cases: Test E preemergence
Assay type in all cases: in vivo
Settings in all cases: scale 0 to 100
corn (Zea mays) = system: corn (Zea mays)
Method in brief: (§1)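 Test chemicals, formulated in a non-phytotoxic solvent with surfactant, are applied to silt loam soil after sowing or sprayed over young plants (1–4 leaves) in potting medium. Plants are then kept in a greenhouse for 14 to 21 days and scored 0–100 for control.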

[1] = system: sandbur (southern sandbur, Cenchrus echinatus)
Method in brief: as §1

[2] = system: palmer pigweed (Amaranthus palmeri)
Method in brief: as §1

[3] = system: green foxtail (Setaria viridis)
Method in brief: as §1

[4] = system: hairy beggarticks (Bidens pilosa)
Method in brief: as §1

[5] = system: morningglory (Ipomoea coccinea)
Method in brief: as §1

[6] = system: lambsquarters (Chenopodium album)
Method in brief: as §1

[7] = system: nightshade (eastern black nightshade, Solanum ptycanthum)
Method in brief: as §1

[8] = system: field bindweed (Convolvulus arvensis)
Method in brief: as §1

[9] = system: dayflower (Virginia (VA) dayflower, Commelina virginica)
Method in brief: as §1

[10] = system: barnyardgrass (Echinochloa crus-galli)
Method in brief: as §1

soybean (Glycine max) = system: soybean (Glycine max)
Method in brief: as §1

[11] = system: giant foxtail (Setaria faberii)
Method in brief: as §1

[12] = system: Italian ryegrass (Lolium multiflorum)
Method in brief: as §1

[13] = system: fall panicum (Panicum dichotomiflorum)
Method in brief: as §1

[14] = system: arrowleaf sida (Sida rhombifolia)
Method in brief: as §1

[15] = system: waterhemp (common waterhemp, Amaranthus rudis)
Method in brief: as §1

[16] = system: Brazilian crabgrass (Digitaria horizontalis)
Method in brief: as §1

[17] = system: goosegrass (Eleusine indica)
Method in brief: as §1

[18] = system: yellow nutsedge (Cyperus esculentus)
Method in brief: as §1

[19] = system: Surinam grass (Brachiaria decumbens)
Method in brief: as §1

SMILES: N#Cc1cccc(Oc2ncc(Cl)cn2)c1Oc1ncc(C(F)(F)F)cn1 [Compound 38, 3-[(5-chloro-2-pyrimidinyl)oxy]-2-[[5-(trifluoromethyl)-2-pyrimidinyl]oxy]-benzonitrile]
- Plant response rating, Corn (corn (Zea mays); 16 g ai/ha): 0
- Plant response rating, Corn (corn (Zea mays); 31 g ai/ha): 0
- Plant response rating, Corn (corn (Zea mays); 62 g ai/ha): 35
- Plant response rating, Corn (corn (Zea mays); 125 g ai/ha): 50
- Plant response rating, Sandbur ([1]; 16 g ai/ha): 0
- Plant response rating, Sandbur ([1]; 31 g ai/ha): 0
- Plant response rating, Sandbur ([1]; 62 g ai/ha): 35
- Plant response rating, Sandbur ([1]; 125 g ai/ha): 80
- Plant response rating, Pigweed, Palmer ([2]; 16 g ai/ha): 60
- Plant response rating, Pigweed, Palmer ([2]; 31 g ai/ha): 100
- Plant response rating, Pigweed, Palmer ([2]; 62 g ai/ha): 98
- Plant response rating, Pigweed, Palmer ([2]; 125 g ai/ha): 100
- Plant response rating, Foxtail, Green ([3]; 16 g ai/ha): 5
- Plant response rating, Foxtail, Green ([3]; 31 g ai/ha): 30
- Plant response rating, Foxtail, Green ([3]; 62 g ai/ha): 100
- Plant response rating, Foxtail, Green ([3]; 125 g ai/ha): 100
- Plant response rating, Beggarticks ([4]; 16 g ai/ha): 0
- Plant response rating, Beggarticks ([4]; 31 g ai/ha): 0
- Plant response rating, Beggarticks ([4]; 62 g ai/ha): 0
- Plant response rating, Beggarticks ([4]; 125 g ai/ha): 35
- Plant response rating, Morningglory ([5]; 16 g ai/ha): 0
- Plant response rating, Morningglory ([5]; 31 g ai/ha): 0
- Plant response rating, Morningglory ([5]; 62 g ai/ha): 50
- Plant response rating, Morningglory ([5]; 125 g ai/ha): 35
- Plant response rating, Lambsquarters ([6]; 16 g ai/ha): 98
- Plant response rating, Lambsquarters ([6]; 31 g ai/ha): 100
- Plant response rating, Lambsquarters ([6]; 62 g ai/ha): 100
- Plant response rating, Lambsquarters ([6]; 125 g ai/ha): 100
- Plant response rating, Nightshade ([7]; 16 g ai/ha): 5
- Plant response rating, Nightshade ([7]; 31 g ai/ha): 95
- Plant response rating, Nightshade ([7]; 62 g ai/ha): 98
- Plant response rating, Nightshade ([7]; 125 g ai/ha): 100
- Plant response rating, Field Bindweed ([8]; 16 g ai/ha): 35
- Plant response rating, Field Bindweed ([8]; 31 g ai/ha): 70
- Plant response rating, Field Bindweed ([8]; 62 g ai/ha): 95
- Plant response rating, Field Bindweed ([8]; 125 g ai/ha): 65
- Plant response rating, Dayflower, VA ([9]; 16 g ai/ha): 0
- Plant response rating, Dayflower, VA ([9]; 31 g ai/ha): 0
- Plant response rating, Dayflower, VA ([9]; 62 g ai/ha): 20
- Plant response rating, Dayflower, VA ([9]; 125 g ai/ha): 60
- Plant response rating, Barnyardgrass ([10]; 16 g ai/ha): 0
- Plant response rating, Barnyardgrass ([10]; 31 g ai/ha): 10
- Plant response rating, Barnyardgrass ([10]; 62 g ai/ha): 70
- Plant response rating, Barnyardgrass ([10]; 125 g ai/ha): 90
- Plant response rating, Soybean (soybean (Glycine max); 16 g ai/ha): 15
- Plant response rating, Soybean (soybean (Glycine max); 31 g ai/ha): 15
- Plant response rating, Soybean (soybean (Glycine max); 62 g ai/ha): 95
- Plant response rating, Soybean (soybean (Glycine max); 125 g ai/ha): 80
- Plant response rating, Foxtail, Giant ([11]; 16 g ai/ha): 5
- Plant response rating, Foxtail, Giant ([11]; 31 g ai/ha): 70
- Plant response rating, Foxtail, Giant ([11]; 62 g ai/ha): 100
- Plant response rating, Foxtail, Giant ([11]; 125 g ai/ha): 100
- Plant response rating, Ryegrass, Italian ([12]; 16 g ai/ha): 0
- Plant response rating, Ryegrass, Italian ([12]; 31 g ai/ha): 25
- Plant response rating, Ryegrass, Italian ([12]; 62 g ai/ha): 65
- Plant response rating, Ryegrass, Italian ([12]; 125 g ai/ha): 80
- Plant response rating, Panicum, Fall ([13]; 16 g ai/ha): 0
- Plant response rating, Panicum, Fall ([13]; 31 g ai/ha): 98
- Plant response rating, Panicum, Fall ([13]; 62 g ai/ha): 100
- Plant response rating, Panicum, Fall ([13]; 125 g ai/ha): 100
- Plant response rating, Arrowleaf Sida ([14]; 16 g ai/ha): 60
- Plant response rating, Arrowleaf Sida ([14]; 31 g ai/ha): 50
- Plant response rating, Arrowleaf Sida ([14]; 62 g ai/ha): 80
- Plant response rating, Arrowleaf Sida ([14]; 125 g ai/ha): 100
- Plant response rating, Waterhemp ([15]; 16 g ai/ha): 50
- Plant response rating, Waterhemp ([15]; 31 g ai/ha): 98
- Plant response rating, Waterhemp ([15]; 62 g ai/ha): 98
- Plant response rating, Waterhemp ([15]; 125 g ai/ha): 100
- Plant response rating, Crabgrass, Brazil ([16]; 16 g ai/ha): 80
- Plant response rating, Crabgrass, Brazil ([16]; 31 g ai/ha): 98
- Plant response rating, Crabgrass, Brazil ([16]; 62 g ai/ha): 100
- Plant response rating, Crabgrass, Brazil ([16]; 125 g ai/ha): 100
- Plant response rating, Goosegrass ([17]; 16 g ai/ha): 30
- Plant response rating, Goosegrass ([17]; 31 g ai/ha): 50
- Plant response rating, Goosegrass ([17]; 62 g ai/ha): 90
- Plant response rating, Goosegrass ([17]; 125 g ai/ha): 100
- Plant response rating, Nutsedge, Yellow ([18]; 16 g ai/ha): 0
- Plant response rating, Nutsedge, Yellow ([18]; 31 g ai/ha): 0
- Plant response rating, Nutsedge, Yellow ([18]; 62 g ai/ha): 20
- Plant response rating, Nutsedge, Yellow ([18]; 125 g ai/ha): 65
- Plant response rating, Surinam Grass ([19]; 16 g ai/ha): 0
- Plant response rating, Surinam Grass ([19]; 31 g ai/ha): 0
- Plant response rating, Surinam Grass ([19]; 62 g ai/ha): 15
- Plant response rating, Surinam Grass ([19]; 125 g ai/ha): 40
